Reference: ChEMBL document CHEMBL3875183, “Structure guided design of a series of selective pyrrolopyrimidinone MARK inhibitors” (Bioorg Med Chem Lett, 2017)

Key:
[1] = Lipophilicity, logD of the compound; format: physicochemical; settings: octanol/water
[2] = Half life in rat liver microsomes; format: ADME
[3] = Half life in human liver microsomes; format: ADME
[4] = Clearance in rat plasma; format: ADME, cell-free
[5] = Volume of distribution in rat; format: ADME; settings: in vivo
[6] = Half life in rat; format: ADME; settings: in vivo
[7] = Clearance in dog plasma; format: ADME, cell-free, Canis lupus familiaris
[8] = Volume of distribution in dog; format: ADME, Canis lupus familiaris; settings: in vivo
[9] = Half life in dog; format: ADME, Canis lupus familiaris; settings: in vivo
[10] = system: MDR1 (human MDR1 or rat MDR1a); assay: Apparent permeability of the compound in pig LLC-PK1 cells expressing human MDR1 or rat MDR1a; format: ADME, cell-based, Sus scrofa

logD [1]	half-life [2]	half-life [3]	clearance [4]	Vd [5]	half-life [6]	clearance [7]	Vd [8]	half-life [9]	Papp [10]	SMILES
2.92	9 min	10 min	341 mL/min/kg	16.2 L/kg	48 min	68 mL/min/kg	4 L/kg	48 min	–	CC1(C)C(=O)N([C@H]2CCc3c(O)cccc32)c2nc(Nc3ccccc3)ncc21
–	–	–	–	–	–	–	–	–	12 ×10⁻⁶ cm/s	CC1(C)C(=O)N(C2CCCCC2)c2nc(Nc3ccccc3)ncc21
